# Source: patent publication US4153709A, “N-Heterocyclic ureas as immune regulants” (Eli Lilly and Company, priority 1977, dated 1979)
# System: antibody response to sheep blood cells (hemaglutination titer)
# Assay: Immune regulating test: suppression of hemaglutination titer by 4-fold factor in mice (i.p. drug, i.p. sheep blood cells), Tables 1-15
# Assay type: in vivo, Swiss mice
# Conditions: Mus musculus, ip, 192 h, × 3, intraperitoneal, minimum dose to suppress the hemaglutination titer by a 4-fold factor, 8 days after antigen, read-out: Immuno-Suppressant ED4-Fold
# Experimental: The ability of compounds according to the above formulas to alter immune mechanisms in a host animal was measured by their activity according to the following test. Groups of five 20-gram Swiss mice were injected intraperitoneally with standardized suspensions of an antigen--in this instance sheep blook cells. […] Eight days after injection of the antigen, the mice were bled and the sera from each group pooled. Antibody determinations were made on the serum pools by a hemaglutination pattern procedure and comparisons made between treated and control animals. In Tables 1-18 which follow, the activity of the compounds listed therein is given in terms of the minimum dose of drug necessary to suppress the hemaglutination titer by a 4-fold factor in the treated mice as compared with control titers.
row,Compound,minimal effective dose
1,"COc1ccc2nc(NC(=O)Nc3ccccc3C)sc2c1 [Table 11: o-tolyl, 6-CH3 O, S]",< 50 mg/kg
2,CCOC(=O)c1ccc2[nH]c(NC(=O)Nc3ccccc3F)nc2c1 [Table 3: o-fluorophenyl],< 6.2 mg/kg
3,"O=C(Nc1ccccc1)Nc1nc2ccccc2n1-c1ccccc1 [Table 8: phenyl, phenyl]",50 mg/kg
4,Cc1cc2nc(NC(=O)Nc3ccc(F)cc3)sc2cc1C,12.5 mg/kg
5,"Cn1c(NC(=O)Nc2ccccc2)nc2ccccc21 [Table 8: phenyl, methyl]",3.1 mg/kg
6,"O=C(Nc1nc2ccccc2o1)Nc1cccc2ccccc12 [Table 11: α-naphthyl, H, O]",50 mg/kg
7,"O=C(Nc1cccc(Cl)c1)Nc1nc2ccccc2[nH]1 [Table 1: m-chlorophenyl, H]",3.1 mg/kg
8,"O=C(Nc1ccccc1)Nc1nc2ccccc2o1 [Table 11: phenyl, H, O]",50 mg/kg
9,"O=C(Nc1nc2c(ccc3ccccc32)s1)Nc1cc(Cl)ccc1Cl [Table 14: 2,5-dichlorophenyl]",100 mg/kg
10,"O=C(Nc1ccc(Cl)cc1)Nc1nc2ccccc2s1 [Table 11: p-chlorophenyl, H, S]",< 6.2 mg/kg
11,CCOC(=O)c1ccc2[nH]c(NC(=O)Nc3cccc(Cl)c3)nc2c1 [Table 3: m-chlorophenyl],50 mg/kg
12,"O=C(Nc1ccc(Cl)c(Cl)c1)Nc1nc2ccccc2s1 [Table 11: 3,4-dichlorophenyl, H, S]",12.5 mg/kg
13,"Cn1c(NC(=O)Nc2cccc3ccccc23)nc2ccccc21 [Table 8: α-naphthyl, methyl]",> 50 mg/kg
14,"O=C(Nc1nc2ccccc2[nH]1)Nc1ccccc1Cl [Table 1: o-chlorophenyl, H]",12.5 mg/kg
15,"O=C(Nc1ccc(Cl)cc1)Nc1nc2ccccc2[nH]1 [Table 1: p-chlorophenyl, H]",12.5 mg/kg
16,"Cc1cccc(NC(=O)Nc2nc3cc(C)c(C)cc3s2)c1 [Table 11: m-tolyl, 5,6-dimethyl, S]",25 mg/kg
17,"Cc1ccc(NC(=O)Nc2nc3cc(C)c(C)cc3[nH]2)cc1 [Table 5: p-tolyl, CH3, CH3]",3 mg/kg
18,Cc1cccc(NC(=O)Nc2nc3c(ccc4ccccc43)s2)c1 [Table 14: m-tolyl],3.1 mg/kg
19,O=C(Nc1ccc(F)cc1)Nc1nc2c(ccc3ccccc32)s1 [Table 14: p-fluorophenyl],12.5 mg/kg

row,Compound,minimal effective dose
1,"O=C(Nc1ccc(Cl)c(Cl)c1)Nc1nc2ccccc2[nH]1 [Table 1: 3,4-dichlorophenyl, H]",0.8 mg/kg
2,O=C(Nc1ccc(Cl)cc1)Nc1nc2c(ccc3ccccc32)s1 [Table 14: p-chlorophenyl],< 100 mg/kg
3,Cc1cc2nc(NC(=O)Nc3ccccc3F)sc2cc1C,< 1.6 mg/kg
4,"O=C(Nc1nc2ccccc2s1)Nc1ccccc1Cl [Table 11: o-chlorophenyl, H, S]",< 50 mg/kg
5,O=C(Nc1nc2c(s1)CCCC2)Nc1cccc2ccccc12 [Table 13: α-naphthyl],< 50 mg/kg
6,"O=C(Nc1nc2cc(Cl)ccc2o1)Nc1cccc2ccccc12 [Table 11: α-naphthyl, 5-Cl, O]",200 mg/kg
7,O=C(Nc1cccc(Cl)c1)Nc1nc2c(ccc3ccccc32)[nH]1 [Table 10: m-chlorophenyl],0.05 mg/kg
8,Cc1cc2nc(NC(=O)Nc3ccc(Cl)cc3)sc2cc1C,25 mg/kg
9,O=C(Nc1nc2cc3ccccc3cc2[nH]1)Nc1cccc2ccccc12 [Table 9: α-naphthyl],50 mg/kg
10,"O=C(Nc1nc2cc(Cl)c(Cl)cc2[nH]1)Nc1cccc2ccccc12 [Table 5: α-naphthyl, Cl, Cl]",> 12.5 mg/kg
11,"Cc1cc2nc(NC(=O)Nc3cccc4ccccc34)sc2cc1C [Table 11: α-naphthyl, 5,6-dimethyl, S]",50 mg/kg
12,"CN(C(=O)Nc1ccc(Cl)cc1)c1nc2ccccc2[nH]1 [Table 7: p-chlorophenyl, H]",50 mg/kg
13,O=C(Nc1ccc(Br)cc1)Nc1nc2ccc3ccccc3c2s1 [Table 15: p-bromophenyl],50 mg/kg
14,"O=C(Nc1ccc(Br)cc1)Nc1nc2ccccc2[nH]1 [Table 1: p-bromophenyl, H]",100 mg/kg
15,"Cc1cc2nc(NC(=O)Nc3cccc(Cl)c3)[nH]c2cc1C [Table 5: m-chlorophenyl, CH3, CH3]",800 mg/kg
16,"Cc1cc2nc(NC(=O)Nc3ccc(Cl)c(Cl)c3)[nH]c2cc1C [Table 5: 3,4-dichlorophenyl, CH3, CH3]",100 mg/kg
17,O=C(Nc1ccccc1)Nc1nc2cc(Cl)ccc2[nH]1 [Table 2: phenyl],25 mg/kg
18,Cc1cc2nc(NC(=O)Nc3cc(Cl)ccc3Cl)sc2cc1C,< 12.5 mg/kg
19,CCOC(=O)c1ccc2[nH]c(NC(=O)Nc3ccccc3Cl)nc2c1 [Table 3: o-chlorophenyl],0.4 mg/kg

row,Compound,minimal effective dose
1,"O=C(Nc1cccc(Cl)c1)Nc1nc2cc(C(F)(F)F)ccc2[nH]1 [Table 4: am-chlorophenyl, CF3]",50 to 200 mg/kg
2,CCOC(=O)c1ccc2[nH]c(NC(=O)Nc3cccc4ccccc34)nc2c1 [Table 3: α-naphthyl],6.2 mg/kg
3,O=C(Nc1ccccc1)Nc1nc2ccc3ccccc3c2s1 [Table 15: phenyl],0.8 mg/kg
4,"Cc1ccc(NC(=O)Nc2nc3cc(C)c(C)cc3s2)cc1 [Table 11: p-tolyl, 5,6-dimethyl, S]",100 mg/kg
5,CCOC(=O)c1ccc2[nH]c(NC(=O)Nc3ccc(C)cc3)nc2c1 [Table 3: p-tolyl],100 mg/kg
6,Cc1ccc(NC(=O)Nc2nc3cc(Cl)ccc3[nH]2)cc1 [Table 2: p-tolyl],50 mg/kg
7,CCOC(=O)c1ccc2[nH]c(NC(=O)Nc3ccc(Cl)cc3)nc2c1 [Table 3: p-chlorophenyl],50 mg/kg
8,"O=C(Nc1ccc(Br)cc1)Nc1nc2ccccc2s1 [Table 11: p-bromophenyl, H, S]",100 mg/kg
9,"Cc1ccc2[nH]c(NC(=O)Nc3ccccc3)nc2c1 [Table 4: phenyl, CH3]",100 mg/kg
10,"O=C(Nc1cccc2ccccc12)Nc1nc2ccccc2n1-c1ccccc1 [Table 8: α-naphthyl, phenyl]",100 mg/kg
11,O=C(Nc1nc2c(ccc3ccccc32)s1)Nc1ccccc1Cl [Table 14: o-chlorophenyl],6.2 mg/kg
12,"Cc1cc2nc(NC(=O)Nc3ccc(F)cc3F)[nH]c2cc1C [Table 5: 2,4-difluorophenyl, CH3, CH3]",0.4 mg/kg
13,"O=C(Nc1nc2cc(C(F)(F)F)ccc2[nH]1)Nc1cccc2ccccc12 [Table 4: α-naphthyl, CF3]",< 50 mg/kg
14,"Cc1cc2nc(NC(=O)Nc3ccccc3)sc2cc1C [Table 11: phenyl, 5,6-dimethyl, S]",100 mg/kg
15,CCOC(=O)c1ccc2[nH]c(NC(=O)Nc3ccccc3C)nc2c1 [Table 3: o-tolyl],25 mg/kg
16,"Cc1cc2nc(NC(=O)Nc3ccc(Br)cc3)sc2cc1C [Table 11: p-bromophenyl, 5,6-dimethyl, S]",100 mg/kg
17,CN(C(=O)Nc1ccccc1)c1nc2ccccc2s1 [Table 12: phenyl],50 mg/kg
18,"Cc1cc2nc(NC(=O)Nc3ccccc3F)[nH]c2cc1C [Table 5: o-fluorophenyl, CH3, CH3]",100 mg/kg
19,"O=C(Nc1ccccc1)Nc1nc2cc(Cl)c(Cl)cc2[nH]1 [Table 5: phenyl, Cl, Cl]",12.5 mg/kg
